US20170022171A1, “2,5-DISUBSTITUTED CYCLOPENTANECARBOXYLIC ACIDS AND THEIR USE” (Bayer Pharma Aktiengesellschaft, priority 2014, published 2017)

target: T1, mouse MMP-2 (Mus musculus, UniProt P33434); assay: In vitro mouse MMP-2 inhibition test; type: biochemical
T1 construct: purchased R&D Systems 924-MP
Source text: The MMP-mediated amidolytic cleavage of a suitable peptide substrate leads to an increase in fluorescent light here too. The signal intensity of the fluorescent light is directly proportional to the enzyme activity. The active concentration of a test compound at which half the enzyme is inhibited (50% signal intensity of the fluorescent light) is reported as the IC50 value.
Recombinant mouse MMP-2 (from R&D Systems, 924-MP) is chemically activated in accordance with the manufacturer's instructions using APMA. 1 μl of the test compound to be analysed (as a solution in DMSO, suitable concentrations, for example, 1 nM to 30 μM) is pipetted into 24 μl of activated enzyme (final concentration, for example, 0.1 nM) in reaction buffer (50 mM Tris/HCl pH 7.5, 10 mM CaCl2, 150 mM NaCl, 0.05% Brij®-35) in a white 384-hole microtiter plate (MTP). The enzymatic reaction is started by adding the intramolecularly quenched Mca-Pro-Leu-Gly-Leu-Dpa(Dnp)-Ala-Arg-NH2 substrate (final concentration, for example, 10 μM; R&D Systems, ES-001), so as to result in a total test volume of 50 The course of the MMP-2 reaction is measured by measuring the fluorescence intensity (excitation 320 nm, emission 410 nm) over a suitable period of time (for example over 120 min at a temperature of 32° C.).

T1 sequence (P33434 110-662): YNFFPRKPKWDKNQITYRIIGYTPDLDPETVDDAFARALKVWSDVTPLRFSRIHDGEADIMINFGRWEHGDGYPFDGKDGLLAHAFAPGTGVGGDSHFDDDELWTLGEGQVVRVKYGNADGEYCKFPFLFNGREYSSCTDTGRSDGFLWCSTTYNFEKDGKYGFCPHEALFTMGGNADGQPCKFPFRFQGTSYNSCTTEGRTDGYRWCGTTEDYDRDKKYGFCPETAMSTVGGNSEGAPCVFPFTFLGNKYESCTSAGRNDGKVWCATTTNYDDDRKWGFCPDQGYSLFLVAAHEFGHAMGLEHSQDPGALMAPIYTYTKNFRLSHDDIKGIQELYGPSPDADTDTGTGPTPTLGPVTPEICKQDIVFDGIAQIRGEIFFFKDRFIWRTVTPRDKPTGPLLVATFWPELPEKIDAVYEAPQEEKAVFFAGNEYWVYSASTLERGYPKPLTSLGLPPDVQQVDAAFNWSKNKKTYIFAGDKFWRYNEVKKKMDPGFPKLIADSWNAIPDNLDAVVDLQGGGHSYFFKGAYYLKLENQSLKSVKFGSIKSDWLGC

Row | IC50 [nM] | Structure (SMILES)
1 | 14 | O=C(O)[C@H]1[C@H](Cn2nnc3ccccc3c2=O)CC[C@@H]1C(=O)c1ccc(OCc2ccc(F)cc2)cc1 (racemic) [Example 1, (+/−)-(1RS,2RS,5SR)-2-{4-[(4-Fluorobenzyl)oxy]benzoyl}-5-[(4-oxo-1,2,3-benzotriazin-3(4H)-yl)methyl]cyclopentanecarboxylic acid]
2 | 400 | O=C(O)[C@H]1[C@H](Cn2nnc3ccccc3c2=O)CC[C@@H]1C(=O)c1ccc(OCc2cccc(Cl)c2)cc1 (racemic) [Example 2, (+/−)-(1RS,2RS,5SR)-2-{4-[(3-Chlorobenzyl)oxy]benzoyl}-5-[(4-oxo-1,2,3-benzotriazin-3(4H)-yl)methyl]cyclopentanecarboxylic acid]
3 | 290 | O=C(O)[C@H]1[C@H](Cn2nnc3ccccc3c2=O)CC[C@@H]1C(=O)c1ccc(OCc2ccc(Cl)c(Cl)c2)cc1 (racemic) [Example 3, (+/−)-(1RS,2RS,5SR)-2-{4-[(3,4-Dichlorobenzyl)oxy]benzoyl}-5-[(4-oxo-1,2,3-benzotriazin-3(4H)-yl)methyl]cyclopentanecarboxylic acid]
4 | 100 | O=C(O)[C@H]1[C@H](Cn2nnc3ccccc3c2=O)CC[C@@H]1C(=O)c1ccc(OCC2CCCC2)cc1 (racemic) [Example 4, (+/−)-(1RS,2RS,5SR)-2-[4-(Cyclopentylmethoxy)benzoyl]-5-[(4-oxo-1,2,3-benzotriazin-3(4H)-yl)methyl]cyclopentanecarboxylic acid]
5 | 5900 | O=C(O)[C@H]1[C@H](Cn2nnc3ccc(C(F)(F)F)cc3c2=O)CC[C@@H]1C(=O)c1ccc(SCc2ccc(Cl)c(Cl)c2)cc1 (racemic) [Example 79, (+/−)-(1RS,2RS,5SR)-2-{4-[(3,4-Dichlorobenzyl)sulphanyl]benzoyl}-5-{[4-oxo-6-(trifluoromethyl)-1,2,3-benzotriazin-3(4H)-yl]methyl}cyclopentanecarboxylic acid]
6 | 95 | Cc1ccc2nnn(C[C@@H]3CC[C@H](C(=O)c4ccc(OCc5ccccc5)cc4)[C@H]3C(=O)O)c(=O)c2c1 (racemic) [Example 91, (+/−)-(1RS,2RS,5SR)-2-[4-(Benzyloxy)benzoyl]-5-[(6-methyl-4-oxo-1,2,3-benzotriazin-3(4H)-yl)methyl]cyclopentanecarboxylic acid]
7 | 1900 | Cc1cccc(COc2ccc(C(=O)[C@H]3CC[C@@H](Cn4nnc5ccc(C)cc5c4=O)[C@@H]3C(=O)O)cc2)c1 (racemic) [Example 97, (+/−)-(1RS,2RS,5SR)-2-{4-[(3-Methylbenzyl)oxy]benzoyl}-5-[(6-methyl-4-oxo-1,2,3-benzotriazin-3(4H)-yl)methyl]cyclopentanecarboxylic acid]
8 | 890 | Cc1ccc2nnn(C[C@@H]3CC[C@H](C(=O)c4ccc(OCc5cccc(C(F)(F)F)c5)cc4)[C@H]3C(=O)O)c(=O)c2c1 (racemic) [Example 100, (+/−)-(1RS,2SR,5RS)-2-[(6-Methyl-4-oxo-1,2,3-benzotriazin-3(4H)-yl)methyl]-5-(4-{[3-(trifluoromethyl)benzyl]oxy}benzoyl)cyclopentanecarboxylic acid]
9 | 370 | Cc1ccc2nnn(C[C@@H]3CC[C@H](C(=O)c4ccc(OCc5cccc(Cl)c5)cc4)[C@H]3C(=O)O)c(=O)c2c1 (racemic) [Example 103, (+/−)-(1RS,2RS,5SR)-2-{4-[(3-Chlorobenzyl)oxy]benzoyl}-5-[(6-methyl-4-oxo-1,2,3-benzotriazin-3(4H)-yl)methyl]cyclopentanecarboxylic acid]
10 | 1300 | Cc1ccc2nnn(C[C@@H]3CC[C@H](C(=O)c4ccc(OCc5cccc(OC(F)(F)F)c5)cc4)[C@H]3C(=O)O)c(=O)c2c1 (racemic) [Example 109, (+/−)-(1RS,2SR,5RS)-2-[(6-Methyl-4-oxo-1,2,3-benzotriazin-3(4H)-yl)methyl]-5-(4-{[3-(trifluoromethoxy)benzyl]oxy}benzoyl)cyclopentanecarboxylic acid]
11 | 2400 | O=C(O)[C@@H]1[C@@H](Cn2nnc3ccc(C(F)(F)F)cc3c2=O)CC[C@H]1C(=O)c1ccc(OCc2cccc(Cl)c2)cc1 (single isomer, unassigned) [Example 23, (+)-(1RS,2RS,5SR)-2-{4-[(3-Chlorobenzyl)oxy]benzoyl}-5-{[4-oxo-6-(trifluoromethyl)-1,2,3-benzotriazin-3(4H)-yl]methyl}cyclopentanecarboxylic acid]

The remaining lines, values behind:

Row | Structure (SMILES) | IC50 [nM]
12 | O=C(O)[C@H]1[C@H](Cn2nnc3ccccc3c2=O)CC[C@@H]1C(=O)c1ccc(OCCC2CCCCC2)cc1 (racemic) [Example 5, (+/−)-(1RS,2RS,5SR)-2-[4-(2-Cyclohexylethoxy)benzoyl]-5-[(4-oxo-1,2,3-benzotriazin-3(4H)-yl)methyl]cyclopentanecarboxylic acid] | 270
13 | O=C(O)[C@H]1[C@H](Cn2nnc3ccc(C(F)(F)F)cc3c2=O)CC[C@@H]1C(=O)c1ccc(OCCCc2ccccc2)cc1 (racemic) [Example 39, (+/−)-(1RS,2SR,5RS)-2-{[4-Oxo-6-(trifluoromethyl)-1,2,3-benzotriazin-3(4H)-yl]methyl}-5-[4-(3-phenylpropoxy)benzoyl]cyclopentanecarboxylic acid] | 3800
14 | O=C(O)[C@H]1[C@H](Cn2nnc3ccc(C(F)(F)F)cc3c2=O)CC[C@@H]1C(=O)c1ccc(OCC2CCCCC2)cc1 (racemic) [Example 40, (+/−)-(1RS,2RS,5SR)-2-[4-(Cyclohexylmethoxy)benzoyl]-5-{[4-oxo-6-(trifluoromethyl)-1,2,3-benzotriazin-3(4H)-yl]methyl}cyclopentanecarboxylic acid] | 570
15 | O=C(O)[C@H]1[C@H](Cn2nnc3ccc(C(F)(F)F)cc3c2=O)CC[C@@H]1C(=O)c1ccc(OCCCC2CCCCC2)cc1 (racemic) [Example 56, (+/−)-(1RS,2RS,5SR)-2-{4-(3-Cyclohexylpropoxy)benzoyl}-5-{[4-oxo-6-(trifluoromethyl)-1,2,3-benzotriazin-3(4H)-yl]methyl}cyclopentanecarboxylic acid] | 5000
16 | CCCCCOc1ccc(C(=O)[C@H]2CC[C@@H](Cn3nnc4ccc(C)cc4c3=O)[C@@H]2C(=O)O)cc1 (racemic) [Example 123, (+/−)-(1RS,2SR,5RS)-2-[(6-Methyl-4-oxo-1,2,3-benzotriazin-3(4H)-yl)methyl]-5-[4-(pentyloxy)benzoyl]cyclopentanecarboxylic acid] | 370
17 | O=C(O)[C@@H]1[C@@H](Cn2nnc3ccc(C(F)(F)F)cc3c2=O)CC[C@H]1C(=O)c1ccc(OCC2CCCCC2)cc1 (single isomer, unassigned) [Example 41, (+)-(1RS,2RS,5SR)-2-[4-(Cyclohexylmethoxy)benzoyl]-5-{[4-oxo-6-(trifluoromethyl)-1,2,3-benzotriazin-3(4H)-yl]methyl}cyclopentanecarboxylic acid] | 180
18 | O=C(O)[C@@H]1[C@@H](Cn2nnc3ccc(C(F)(F)F)cc3c2=O)CC[C@H]1C(=O)c1ccc(OCCC2CCCCC2)cc1 (single isomer, unassigned) [Example 52, (+)-(1RS,2RS,5SR)-2-[4-(2-Cyclohexylethoxy)benzoyl]-5-{[4-oxo-6-(trifluoromethyl)-1,2,3-benzotriazin-3(4H)-yl]methyl}cyclopentanecarboxylic acid] | 1800
